In one test the test system is AsPC-1 cells. In words: phospho-ERK HTRF assay in AsPC-1 cells, 4 h treatment. The conditions noted are these: Homo sapiens, ASPC1. Format: cell-based. (In general: In TR-FRET formats the signal depends on donor and acceptor labels being close together.)
Another test concerns SW-620. In words: phospho-ERK HTRF assay in SW-620 cells, 4 h treatment. Format: cell-based. The conditions noted are these: Homo sapiens, Table 3, read-out: pERK Inhibition SW-620 IC50.
Setting [1] is: AsPC-1, 4h, Table 1b, read-out: PERK IC50 (AsPC-1, 4h).
Where [2] appears, read: AsPC-1, 4H, Table 1a class column, read-out: pERK IC50 activity range (*).
The mark [3] stands for this setting: AsPC-1, 4H, Table 1a, read-out: PERK IC50 (AsPC-1, 4H).

From US20260224589A1 (priority 2023, published 2026) come the findings set out here.

Each structure is given as a SMILES string. Where two headings read alike, the source gives them in different places. Some results are limits rather than exact numbers.

One may read the IC50 as the midpoint of a concentration-inhibition curve.

Take `CN(C)C(=O)c1nn2c(c1Cl)CN(c1nc(OC[C@@]34CCCN3C[C@H](F)C4)nc3c1CO[C@H](c1c(C(F)(F)F)ccc(N)c1F)C3)CCC2` (single isomer, unassigned) [Example 1]: the concentration for half-maximal inhibition (IC50) in the test on AsPC-1 cells (Table 3, read-out: pERK Inhibition AsPC-1 IC50) turned out to be 0.0128 µM; with SW-620, 0.0144 µM.
As to `CN(C)C(=O)c1nn2c(c1Cl)CN(c1nc(OC[C@@]34CCCN3CC(=C(F)F)C4)nc3c1CO[C@H](c1c(F)c(N)cc(Cl)c1C(F)(F)F)C3)CCC2` [248a, 5-((S)-7-(3-amino-5-chloro-2-fluoro-6-(trifluoromethyl)phenyl)-2-(((S)-2-(difluoromethylene)tetrahydro-1H-pyrrolizin-7a(5H)-yl)methoxy)-7,8-dihydro-5H-pyrano[4,3-d]pyrimidin-4-yl)-3-chloro-N,N-dimethyl-5,6,7,8-tetrahydro-4H-pyrazolo[1,5-a][1,4]diazepine-2-carboxamide], in the test with AsPC-1 cells (setting [1]), the half-maximal inhibitory concentration (IC50) was under 0.01 µM.
Same read-out and setting: next, `CC#Cc1cc(N)cc([C@@H]2Cc3nc(OC[C@@]45CCCN4C/C(=C\F)C5)nc(N4CCCn5nc(C(=O)N(C)C)c(C)c5C4)c3CO2)c1C(F)(F)F` [compound 426]: under 0.01 µM.
Still for that read-out and setting: as for `CN(C)C(=O)c1nn2c(c1Cl)CN(c1nc(OC[C@@]34CCCN3CC(=C(F)F)C4)nc3c1COC(c1cc(N)cc(Cl)c1C(F)(F)F)C3)CCC2` (stereo partly shown) [compound 245], the figure is under 0.01 µM.
As for `CCc1c(C(=O)N(C)C)nn2c1CN(c1nc(OC[C@@]34CCCN3C/C(=C\F)C4)nc3c1CO[C@H](c1cc(N)cc(Cl)c1C(F)(F)F)C3)CCC2` [compound 425], the IC50 with AsPC-1 cells (setting [1]) is under 0.01 µM.
For the compound `CN(C)C(=O)c1nn2c(c1Cl)CN(c1nc(OC[C@@]34CCCN3C[C@H](F)C4)nc3c1COC(c1cc(N)ccc1C(F)(F)F)C3)CCC2` (stereo partly drawn) [compound 230, 5-(7-(5-amino-2-(trifluoromethyl)phenyl)-2-(((2R,7aS)-2-fluorotetrahydro-1H-pyrrolizin-7a(5H)-yl)methoxy)-7,8-dihydro-5H-pyrano[4,3-d]pyrimidin-4-yl)-3-chloro-N,N-dimethyl-5,6,7,8-tetrahydro-4H-pyrazolo[1,5-a][1,4]diazepine-2-carboxamide], the IC50 with AsPC-1 cells (setting [2]) is 0.031 to 0.1 µM; in the test on AsPC-1 cells (setting [3]), 0.037 µM.
`CN(C)C(=O)c1nn2c(c1Cl)CN(c1nc(OC[C@]34CCCN3C[C@@H](C=C(F)F)C4)nc3c1COC(c1c(F)c(N)cc(Cl)c1C(F)(F)F)C3)CCC2` (stereo partly shown) [compound 460]: the IC50 with AsPC-1 cells (setting [1]) is under 0.01 µM.
In the case of `CC#Cc1cc(N)cc([C@@H]2Cc3nc(OC[C@@]45CCCN4C[C@H](F)C5)nc(N4CCCn5nc(C(=O)N(C)C)c(CC)c5C4)c3CO2)c1C(F)(F)F` [compound 423], in the test on AsPC-1 cells (setting [1]), the IC50 was under 0.01 µM.
For `CON(C)C(=O)c1nn2c(c1Cl)CN(c1nc(OC[C@@]34CCCN3C/C(=C\F)C4)nc3c1CO[C@H](c1c(F)c(N)cc(Cl)c1C(F)(F)F)C3)CCC2` [compound 461], in the test on AsPC-1 cells (setting [1]), the IC50 was under 0.01 µM.
On to `Cc1c(C(=O)N(C)C)nn2c1CN(c1nc(OC[C@]34CCCN3C[C@@H](C=C(F)F)C4)nc3c1CO[C@H](c1cc(N)cc(Cl)c1C(F)(F)F)C3)CCC2` [compound 447], for which, in the test with AsPC-1 cells (setting [1]), the IC50 is under 0.01 µM.
With `Cc1cc(N)cc([C@@H]2Cc3nc(OC[C@@]45CCCN4C/C(=C\F)C5)nc(N4CCCn5nc(C(=O)N(C)C)c(C)c5C4)c3CO2)c1C(F)(F)F` [compound 415], the 50% inhibitory concentration (IC50) with AsPC-1 cells (setting [1]) is under 0.01 µM.
On to `CN(C)C(=O)c1nn2c(c1Cl)CN(c1nc(OC[C@@]34CCCN3C/C(=C\F)C4)nc3c1CO[C@H](c1cc(N)ccc1C(F)(F)F)C3)CCC2` [compound 243], for which the results for the IC50 in the test with AsPC-1 cells (setting [2]) and in the test with AsPC-1 cells (setting [3]) were 0.01 to 0.03 µM and 0.0107 µM, respectively.
For the compound `CN(C)C(=O)c1nn2c(c1Cl)CN(c1nc(OC[C@@]34CCCN3C[C@H](F)C4)nc3c1CO[C@H](c1c(C(F)(F)F)ccc(I)c1F)C3)CCC2` [compound 219], the IC50 is over 0.5 µM with AsPC-1 cells (setting [2]) and 0.896 µM in the test on AsPC-1 cells (setting [3]).
On to `Cc1c(C(=O)N(C)C)nn2c1CN(c1nc(OC[C@@]34CCCN3C/C(=C\F)C4)nc3c1CO[C@H](c1cc(N)cc(Cl)c1C(F)(F)F)C3)CCC2` [compound 300, 5-((S)-7-(5-amino-3-chloro-2-(trifluoromethyl)phenyl)-2-(((S,Z)-2-(fluoromethylene)tetrahydro-1H-pyrrolizin-7a(5H)-yl)methoxy)-7,8-dihydro-5H-pyrano[4,3-d]pyrimidin-4-yl)-N,N,3-trimethyl-5,6,7,8-tetrahydro-4H-pyrazolo[1,5-a][1,4]diazepine-2-carboxamide], for which the half-inhibitory concentration (IC50) in the test on AsPC-1 cells (setting [1]) was under 0.01 µM.
As for `CON(C)C(=O)c1nn2c(c1Cl)CN(c1nc(OC[C@@]34CCCN3CC(=C(F)F)C4)nc3c1COC(c1c(F)c(N)cc(Cl)c1C(F)(F)F)C3)CCC2` (stereo partly shown) [compound 454], the IC50 in the test with AsPC-1 cells (setting [2]) is 0.01 to 0.03 µM.
On to `CC#Cc1cc(N)cc([C@@H]2Cc3nc(OC[C@@]45CCCN4C[C@H](F)C5)nc(N4CCCn5nc(C(=O)N(C)C)cc5C4)c3CO2)c1C(F)(F)F` [compound 408], for which the 50% inhibitory concentration (IC50) with AsPC-1 cells (setting [2]) was in the range of 0.01 to 0.03 µM.
`CN(C)C(=O)c1nn2c(c1Cl)CN(c1nc(OC[C@@]34CCCN3C[C@H](F)C4)nc3c1CO[C@H](c1c(C(F)(F)F)ccc(Br)c1F)C3)CCC2` [compound 220]: the IC50 in the test on AsPC-1 cells (setting [2]) is over 0.5 µM; in the test with AsPC-1 cells (setting [3]) it was 1.04 µM.
